Experimental data: patent US20260248135A1, “HERBICIDAL COMBINATIONS AND A METHOD FOR CONTROLLING UNDESIRED VEGETATION” (UPL Mauritius Limited, priority 2022, published 2026)

Legend:
Format in all cases: in vivo
Brachiaria decumbens [1] = assay: Post-emergence herbicidal efficacy, Example 3 (L-glufosinate ammonium, saflufenacil and 2,4-D)
Procedure: (§1) Methodology: Trials were carried out to evaluate the efficacy of the combination comprising L-glufosinate ammonium and additional herbicides on Brachiaria decumbens weed.
(§2) The soil used was sandy clay loam-sand: 68.0%; silt: 8.0%; clay: 24.0%.
(§3) All treatments were in 3 replications per treatment with a spray volume of about 150 L/ha.
(§4) The expected efficacy of a combination of L-glufosinate ammonium and the other herbicides was calculated using the well-established Colby method. Any difference between the observed and “expected” efficacy could be attributed to synergy between the two compounds.
(§5) In the Colby method, the expected (or predicted) response of a combination of herbicides is calculated by taking the product of the observed response for each individual component of the combination when applied alone, divided by 100, and subtracting this value from the sum of the observed response for each component when applied alone. An unexpected enhancement in efficacy of the combination is then determined by comparing the observed response of the combination to the expected (or predicted) response as calculated from the observed response of each individual component alone. If the observed response of the combination is greater than the expected (or predicted) response, or stated conversely, if the difference between the observed and expected response is greater than zero, then the combination is said to be synergistic or unexpectedly effective (Colby, S. R., Weeds, 1967 (15), p. 20-22). The Colby method requires only a single dose of each herbicide applied alone and the mixture of both doses. The formula used to calculate the expected efficacy (EE) which was compared with the observed efficacy (OE) to determine the efficacy of the present disclosure is explained hereinbelow:
(§6) The expected efficacy for a combination of three active ingredients is as follows:
(§7) wherein, • A=Observed efficacy of active ingredient A at the same concentration as used in the mixture. • B=Observed efficacy of the active ingredient B at the same concentration as used in the mixture. • C=Observed efficacy of the active ingredient C at the same concentration as used in the mixture.
Experiment was conducted to assess the efficacy of the herbicidal combination comprising L-glufosinate ammonium, saflufenacil and 2,4-D to control the weed Brachiaria decumbens.
The target weed was Brachiaria decumbens, and the concentration of the herbicide and the results are recorded in Table 4.

Brachiaria decumbens [2] = assay: Post-emergence herbicidal efficacy, Example 2 (L-glufosinate ammonium, saflufenacil and triclopyr)
Procedure: as §1, §2, §3, §4, §5, §6, §7
Experiment was conducted to assess the efficacy of the herbicidal combination comprising L-glufosinate ammonium, saflufenacil and triclopyr to control the weed Brachiaria decumbens.
The percentage efficacy was calculated after 3, 7, 14, 21, 28 and 35 days of application (DAA). The target weed was Brachiaria decumbens, and the concentration of the herbicide and the results are recorded in Table 3.

Brachiaria decumbens [3] = assay: Post-emergence herbicidal efficacy, Example 1 (L-glufosinate ammonium and saflufenacil)
Procedure: as §1, §2, §3, §4, §5
The expected efficacy for a combination of two active ingredients is as follows:
as §7
Experiment was conducted to assess the efficacy of the herbicidal combination comprising L-glufosinate ammonium and saflufenacil to control Brachiaria decumbens.
The percentage efficacy was calculated after 3, 7, 14, 21, 28 and 35 days of applications (DAA). The target weed was Brachiaria decumbens, and the results are recorded in Table 2.

O=C(O)COc1ccc(Cl)cc1Cl [2,4-D]
0%: Observed efficacy (%) of 2,4-D (228 g a.i./ha) (Brachiaria decumbens [1]; 3 DAA) | Observed efficacy (%) of 2,4-D (228 g a.i./ha) (Brachiaria decumbens [1]; 7 DAA) | Observed efficacy (%) of 2,4-D (228 g a.i./ha) (Brachiaria decumbens [1]; 14 DAA) | Observed efficacy (%) of 2,4-D (228 g a.i./ha) (Brachiaria decumbens [1]; 21 DAA) | Observed efficacy (%) of 2,4-D (228 g a.i./ha) (Brachiaria decumbens [1]; 28 DAA) | Observed efficacy (%) of 2,4-D (228 g a.i./ha) (Brachiaria decumbens [1]; 35 DAA)

CP(=O)(O)CC[C@H](N)C(=O)O.N [L-glufosinate ammonium]
75%: Observed efficacy (%) of L-glufosinate ammonium (150 g a.i./ha) (Brachiaria decumbens [2]; 7 DAA) | Observed efficacy (%) of L-glufosinate ammonium (150 g a.i./ha) (Brachiaria decumbens [2]; 14 DAA) | Observed efficacy (%) of L-glufosinate ammonium (150 g a.i./ha) (Brachiaria decumbens [1]; 7 DAA) | Observed efficacy (%) of L-glufosinate ammonium (150 g a.i./ha) (Brachiaria decumbens [1]; 14 DAA) | Observed efficacy (%) of L-glufosinate ammonium (150 g a.i./ha) (Brachiaria decumbens [3]; 7 DAA) | Observed efficacy (%) of L-glufosinate ammonium (150 g a.i./ha) (Brachiaria decumbens [3]; 14 DAA)
60%: Observed efficacy (%) of L-glufosinate ammonium (150 g a.i./ha) (Brachiaria decumbens [2]; 35 DAA) | Observed efficacy (%) of L-glufosinate ammonium (150 g a.i./ha) (Brachiaria decumbens [1]; 35 DAA) | Observed efficacy (%) of L-glufosinate ammonium (150 g a.i./ha) (Brachiaria decumbens [3]; 28 DAA)
70%: Observed efficacy (%) of L-glufosinate ammonium (150 g a.i./ha) (Brachiaria decumbens [2]; 21 DAA) | Observed efficacy (%) of L-glufosinate ammonium (150 g a.i./ha) (Brachiaria decumbens [1]; 21 DAA) | Observed efficacy (%) of L-glufosinate ammonium (150 g a.i./ha) (Brachiaria decumbens [3]; 21 DAA)
65%: Observed efficacy (%) of L-glufosinate ammonium (150 g a.i./ha) (Brachiaria decumbens [2]; 3 DAA) | Observed efficacy (%) of L-glufosinate ammonium (150 g a.i./ha) (Brachiaria decumbens [2]; 28 DAA) | Observed efficacy (%) of L-glufosinate ammonium (150 g a.i./ha) (Brachiaria decumbens [1]; 3 DAA) | Observed efficacy (%) of L-glufosinate ammonium (150 g a.i./ha) (Brachiaria decumbens [1]; 28 DAA) | Observed efficacy (%) of L-glufosinate ammonium (150 g a.i./ha) (Brachiaria decumbens [3]; 3 DAA)
55%: Observed efficacy (%) of L-glufosinate ammonium (150 g a.i./ha) (Brachiaria decumbens [3]; 35 DAA)

CC(C)N(C)S(=O)(=O)NC(=O)c1cc(-n2c(=O)cc(C(F)(F)F)n(C)c2=O)c(F)cc1Cl [Saflufenacil]
25%: Observed efficacy (%) of Saflufenacil (30 g a.i./ha) (Brachiaria decumbens [3]; 14 DAA)
30%: Observed efficacy (%) of Saflufenacil (30 g a.i./ha) (Brachiaria decumbens [2]; 3 DAA) | Observed efficacy (%) of Saflufenacil (30 g a.i./ha) (Brachiaria decumbens [2]; 7 DAA) | Observed efficacy (%) of Saflufenacil (30 g a.i./ha) (Brachiaria decumbens [1]; 3 DAA) | Observed efficacy (%) of Saflufenacil (30 g a.i./ha) (Brachiaria decumbens [1]; 7 DAA) | Observed efficacy (%) of Saflufenacil (30 g a.i./ha) (Brachiaria decumbens [3]; 3 DAA) | Observed efficacy (%) of Saflufenacil (30 g a.i./ha) (Brachiaria decumbens [3]; 7 DAA)
0%: Observed efficacy (%) of Saflufenacil (30 g a.i./ha) (Brachiaria decumbens [2]; 28 DAA) | Observed efficacy (%) of Saflufenacil (30 g a.i./ha) (Brachiaria decumbens [2]; 35 DAA) | Observed efficacy (%) of Saflufenacil (30 g a.i./ha) (Brachiaria decumbens [1]; 28 DAA) | Observed efficacy (%) of Saflufenacil (30 g a.i./ha) (Brachiaria decumbens [1]; 35 DAA) | Observed efficacy (%) of Saflufenacil (30 g a.i./ha) (Brachiaria decumbens [3]; 28 DAA) | Observed efficacy (%) of Saflufenacil (30 g a.i./ha) (Brachiaria decumbens [3]; 35 DAA)
5%: Observed efficacy (%) of Saflufenacil (30 g a.i./ha) (Brachiaria decumbens [2]; 21 DAA) | Observed efficacy (%) of Saflufenacil (30 g a.i./ha) (Brachiaria decumbens [1]; 21 DAA)
10%: Observed efficacy (%) of Saflufenacil (30 g a.i./ha) (Brachiaria decumbens [3]; 21 DAA)
20%: Observed efficacy (%) of Saflufenacil (30 g a.i./ha) (Brachiaria decumbens [2]; 14 DAA) | Observed efficacy (%) of Saflufenacil (30 g a.i./ha) (Brachiaria decumbens [1]; 14 DAA)

O=C(O)COc1nc(Cl)c(Cl)cc1Cl [Triclopyr]
10%: Observed efficacy (%) of Triclopyr (228 g a.i./ha) (Brachiaria decumbens [2]; 21 DAA)
5%: Observed efficacy (%) of Triclopyr (228 g a.i./ha) (Brachiaria decumbens [2]; 28 DAA)
0%: Observed efficacy (%) of Triclopyr (228 g a.i./ha) (Brachiaria decumbens [2]; 3 DAA) | Observed efficacy (%) of Triclopyr (228 g a.i./ha) (Brachiaria decumbens [2]; 7 DAA) | Observed efficacy (%) of Triclopyr (228 g a.i./ha) (Brachiaria decumbens [2]; 35 DAA)
20%: Observed efficacy (%) of Triclopyr (228 g a.i./ha) (Brachiaria decumbens [2]; 14 DAA)
